The results in this text go back to ChEMBL document CHEMBL1151930, “Physicochemical determinants of human renal clearance” (J Med Chem, 2009).

The data set in a line: clinical. Particulars: human, in vivo.
Molecule `O=C1CN=C(c2ccccc2)c2cc([N+](=O)[O-])ccc2N1` [NITRAZEPAM] had a CL renal of 0.01 mL/min/kg.

Turning to `CCC(C)(C)NCC(O)COc1ccccc1C(=O)CCc1ccccc1` (stereo not drawn) [DIPRAFENONE], the CL renal amounted to 0.04 mL/min/kg.

Molecule `COc1cc2nc(N3CCN(C(=O)C4CCCO4)CC3)nc(N)c2cc1OC` (stereo not drawn) [TERAZOSIN] had a CL renal of 0.13 mL/min/kg.

Molecule `CCOC(=O)C1(c2ccccc2)CCN(C)CC1` [MEPERIDINE] gave a CL renal of 0.25 mL/min/kg.

The molecule `NC(=O)c1ncn([C@@H]2O[C@H](CO)[C@@H](O)[C@H]2O)n1` [RIBAVIRIN] showed a CL renal of 1.7 mL/min/kg.

In turn, `CCN(C)C(=O)Oc1cccc([C@H](C)N(C)C)c1` [RIVASTIGMINE] registered a CL renal of 0.12 mL/min/kg.

As for `CC[C@H](C)C(=O)O[C@H]1C[C@@H](C)C=C2C=C[C@H](C)[C@H](CC[C@@H]3C[C@@H](O)CC(=O)O3)[C@H]21` [LOVASTATIN], the CL renal came to 0.72 mL/min/kg.

For `CC(C)=CCN1CC[C@]2(C)c3cc(O)ccc3C[C@H]1[C@H]2C` [(+)-PENTAZOCINE], the CL renal amounted to 2.99 mL/min/kg.

`COc1ccc2[nH]c([S+]([O-])Cc3ncc(C)c(OC)c3C)nc2c1` (stereo not drawn) [OMEPRAZOLE] gave a CL renal of 0.08 mL/min/kg.

`O=C(O)[C@H]1/C(=C/CO)O[C@@H]2CC(=O)N21` [CLAVULANIC ACID]: the CL renal was found to be 1.33 mL/min/kg.

In turn, `COc1ccc2c3c1O[C@H]1C(=O)CC[C@@]4(O)[C@@H](C2)N(C)CC[C@]314` [OXYCODONE] returned a CL renal of 1.1 mL/min/kg.

Take `N=C(N)c1ccc(CNC(=O)[C@@H]2CCN2C(=O)[C@H](NCC(=O)O)C2CCCCC2)cc1`: the CL renal was found to be 1.6 mL/min/kg.

`CN(C)CCC=C1c2ccccc2COc2ccccc21` [DOXEPIN]: the CL renal was 0.12 mL/min/kg.

For `C[C@]12C=CC(=O)C=C1CC[C@@H]1[C@@H]2C(=O)C[C@@]2(C)[C@H]1CC[C@]2(O)C(=O)CO` [PREDNISONE], the CL renal came out at 0.05 mL/min/kg.

`COc1ccc2c3c1O[C@H]1[C@@H](O)C=C[C@H]4[C@@H](C2)N(C)CC[C@@]341` [CODEINE]: the CL renal is 1.7 mL/min/kg.

Regarding `C[C@H](N[C@@H](CCc1ccccc1)C(=O)O)C(=O)N1Cc2ccccc2C[C@H]1C(=O)O`, the CL renal came out at 0.9 mL/min/kg.

In the case of `COc1ccc(C(=O)Nc2ccccc2CCC2CCCCN2C)cc1` (stereo not drawn) [ENCAINIDE], the CL renal is 0.78 mL/min/kg.

`COCCc1ccc(OCC(O)CNC(C)C)cc1` (stereo not drawn) [METOPROLOL] yielded a CL renal of 0.65 mL/min/kg.

As to `CCOc1cc(CC(=O)N[C@@H](CC(C)C)c2ccccc2N2CCCCC2)ccc1C(=O)O` [REPAGLINIDE], the CL renal was 0.12 mL/min/kg.

`CCOC(=O)Nc1ccc(NCc2ccc(F)cc2)nc1N` [FLUPIRTINE] displayed a CL renal of 0.27 mL/min/kg.

`C=C1CC[C@@]2(O)[C@H]3Cc4ccc(O)c5c4[C@@]2(CCN3CC2CC2)[C@H]1O5`: the CL renal was 0.75 mL/min/kg.

As to `CC1CCCC(C)N1CCCC(O)(c1ccccc1)c1ccccn1` (stereo not drawn) [PIRMENOL], the CL renal turned out to be 0.72 mL/min/kg.

`C[C@H]1C[C@H]2[C@@H]3CCC4=CC(=O)C=C[C@]4(C)[C@@]3(F)[C@@H](O)C[C@]2(C)[C@@]1(O)C(=O)CO` [BETAMETHASONE] displayed a CL renal of 0.14 mL/min/kg.

Regarding `COc1cccc2c1C(=O)c1c(O)c3c(c(O)c1C2=O)C[C@@](O)(C(=O)CO)C[C@@H]3O[C@H]1C[C@H](N)[C@H](O)[C@H](C)O1` [DOXORUBICIN], the CL renal was 1.83 mL/min/kg.

The molecule `Cc1cccc(C)c1NC(=O)NCCCNC(C)C` gave a CL renal of 2.3 mL/min/kg.

`CC(=O)Oc1ccccc1C(=O)O` [ASPIRIN] returned a CL renal of 0.24 mL/min/kg.

Consider `N#Cc1ccc(C(c2ccc(C#N)cc2)n2cncn2)cc1` [LETROZOLE], for which the CL renal came to 0.02 mL/min/kg.

As to `N[C@@H](Cc1ccc(O)c(O)c1)C(=O)O` [LEVODOPA], the CL renal was found to be 0.23 mL/min/kg.

`CC1(C)S[C@@H]2[C@H](NC(=O)C(C(=O)O)c3ccccc3)C(=O)N2[C@H]1C(=O)O` (stereo partly drawn) [CARBENICILLIN] came in with a CL renal of 1.9 mL/min/kg.

On to `N[C@@H]1CN(c2c(F)cc3c(=O)c(C(=O)O)cn([C@@H]4C[C@@H]4F)c3c2Cl)CC12CC2` [SITAFLOXACIN ANHYDROUS], for which the CL renal turned out to be 2.8 mL/min/kg.

As for `CN1CCN(c2c(F)cc3c(=O)c(C(=O)O)cn(CCF)c3c2F)CC1` [FLEROXACIN], the CL renal came to 1.49 mL/min/kg.

`O=P(O)(O)C(O)(Cc1cccnc1)P(=O)(O)O` [RISEDRONIC ACID] had a CL renal of 1.31 mL/min/kg.

`CC(=O)Nc1nnc(S(N)(=O)=O)s1` [ACETAZOLAMIDE]: the CL renal turned out to be 0.64 mL/min/kg.

In turn, `CN(C)CCCN1c2ccccc2Sc2ccc(Cl)cc21` [CHLORPROMAZINE] showed a CL renal of 0.16 mL/min/kg.

`Cc1ccccc1N1C(=O)c2cc(S(N)(=O)=O)c(Cl)cc2NC1C` (stereo not drawn) [METOLAZONE] had a CL renal of 1.12 mL/min/kg.

Molecule `CC(C)NCC(O)COc1cccc2ccccc12` (stereo not drawn) [PROPRANOLOL] registered a CL renal of 1.2 mL/min/kg.

Regarding `COc1ccc(CCNCC(O)COc2cccc(C)c2)cc1OC` (stereo not drawn) [BEVANTOLOL], the CL renal worked out at 0.06 mL/min/kg.

`NNc1nncc2ccccc12` [HYDRALAZINE]: the CL renal worked out at 10.8 mL/min/kg.

`O=C1CN=C(c2ccccc2Cl)c2cc([N+](=O)[O-])ccc2N1` [CLONAZEPAM] yielded a CL renal of 0.01 mL/min/kg.

Molecule `CCN(CC)CCCC(C)Nc1ccnc2cc(Cl)ccc12` (stereo not drawn) [CHLOROQUINE] gave a CL renal of 2.3 mL/min/kg.

The molecule `CCCc1cc(=O)[nH]c(=S)[nH]1` [PROPYLTHIOURACIL] had a CL renal of 0.04 mL/min/kg.

`CN(C)CCCN1c2ccccc2CCc2cc(O)ccc21` [2-HYDROXYIMIPRAMINE] registered a CL renal of 0.3 mL/min/kg.

The molecule `CC(C)NCC(O)COc1ccc(COCCOC(C)C)cc1` (stereo not drawn) [BISOPROLOL] showed a CL renal of 2.28 mL/min/kg.

With `COc1cc2c3cc1Oc1cc(ccc1O)C[C@@H]1c4c(cc(OC)c(O)c4Oc4ccc(cc4)C[C@@H]3N(C)CC2)CC[N+]1(C)C.[Cl-]`, the CL renal was determined as 2.14 mL/min/kg.

With `CN(C)CCc1c[nH]c2ccc(CS(=O)(=O)N3CCCC3)cc12` [ALMOTRIPTAN], the CL renal is 5.79 mL/min/kg.

`CCN[C@@H]1C[C@H](N)[C@@H](O[C@H]2OC(CN)=CC[C@H]2N)[C@H](O)[C@H]1O[C@H]1OC[C@](C)(O)[C@H](NC)[C@H]1O` [NETILMICIN] registered a CL renal of 0.28 mL/min/kg.

For `CCCCNc1cc(C(=O)O)cc(S(N)(=O)=O)c1Oc1ccccc1` [BUMETANIDE], the CL renal stood at 0.85 mL/min/kg.

Take `CC1(C)S[C@@H]2[C@H](NC(=O)COc3ccccc3)C(=O)N2[C@H]1C(=O)O` [PENICILLIN V]: the CL renal was determined as 1.74 mL/min/kg.

`CCCCC(=O)N(Cc1ccc(-c2ccccc2-c2nnn[nH]2)cc1)[C@H](C(=O)O)C(C)C`: the CL renal turned out to be 0.14 mL/min/kg.

With `NC12CC3CC(CC(C3)C1)C2` [AMANTADINE], the CL renal is 4.8 mL/min/kg.

As for `Nc1ccc(S(=O)(=O)Nc2ncccn2)cc1` [SULFADIAZINE], the CL renal stood at 0.34 mL/min/kg.

`COc1ccccc1OCCNCC(O)COc1cccc2[nH]c3ccccc3c12` (stereo not drawn) [CARVEDILOL] came in with a CL renal of 0.1 mL/min/kg.

For `Cc1onc(-c2c(F)cccc2Cl)c1C(=O)N[C@@H]1C(=O)N2[C@@H]1SC(C)(C)[C@@H]2C(=O)O` [FLOXACILLIN], the CL renal was found to be 1.56 mL/min/kg.

With `N[C@@H](C(=O)N[C@@H]1C(=O)N2C(C(=O)O)=C(CSc3c[nH]nn3)CS[C@H]12)c1ccc(O)cc1` [CEFATRIZINE], the CL renal came out at 2.64 mL/min/kg.

In turn, `CCO[C@@H](Cc1ccc(OCCc2ccc(OS(C)(=O)=O)cc2)cc1)C(=O)O` [TESAGLITAZAR] registered a CL renal of 0.01 mL/min/kg.

In the case of `CC1(C)C[C@@H]1C(=O)N/C(=C\CCCCSC[C@H](N)C(=O)O)C(=O)O` [CILASTATIN], the CL renal was 0.41 mL/min/kg.

The molecule `O.O=P(O)(O)C(O)(Cn1ccnc1)P(=O)(O)O` [ZOLEDRONIC ACID] came in with a CL renal of 0.79 mL/min/kg.

In the case of `O=c1[nH]c2ccccc2n1CCCN1CCC(n2c(=O)[nH]c3cc(Cl)ccc32)CC1` [DOMPERIDONE], the CL renal was 0.04 mL/min/kg.

Consider `O=C1CN=C(c2ccccn2)c2cc(Br)ccc2N1` [BROMAZEPAM], for which the CL renal was 0.26 mL/min/kg.

Turning to `CC1=C(C(=O)O)N2C(=O)[C@@H](NC(=O)[C@H](N)c3ccc(O)cc3)[C@H]2SC1` [CEFADROXIL], the CL renal amounted to 2.33 mL/min/kg.

For `COc1ccc2c3c1O[C@H]1C[C@@H](O)C=C[C@@]31CCN(C)C2` [GALANTAMINE], the CL renal came to 1.57 mL/min/kg.

Turning to `CCN1CCC[C@H]1CNC(=O)c1c(OC)ccc(Br)c1OC` [REMOXIPRIDE], the CL renal is 0.44 mL/min/kg.

`CS(=O)(=O)OCCCCOS(C)(=O)=O` [BUSULFAN] returned a CL renal of 0.2 mL/min/kg.

In the case of `O=C(N[C@H](CO)[C@H](O)c1ccc([N+](=O)[O-])cc1)C(Cl)Cl` [CHLORAMPHENICOL], the CL renal came out at 0.24 mL/min/kg.

Molecule `Cc1nc2n(c(=O)c1CCN1CCC(c3noc4cc(F)ccc34)CC1)CCCC2` [RISPERIDONE] gave a CL renal of 0.18 mL/min/kg.

In turn, `COc1ccc2c(c1)c(CC(=O)O)c(C)n2C(=O)c1ccc(Cl)cc1` [INDOMETHACIN] returned a CL renal of 0.2 mL/min/kg.

As to `CN(C)CCc1c[nH]c2ccc(C[C@H]3COC(=O)N3)cc12` [ZOLMITRIPTAN], the CL renal is 2.2 mL/min/kg.

Regarding `CCCNC(=O)NS(=O)(=O)c1ccc(Cl)cc1` [CHLORPROPAMIDE], the CL renal came out at 0.01 mL/min/kg.

With `CC(=O)N[C@H]1[C@H]([C@H](O)[C@H](O)CO)OC(C(=O)O)=C[C@@H]1N=C(N)N` [ZANAMIVIR], the CL renal amounted to 1.39 mL/min/kg.

`CCCC(C)C1(CC)C(=O)NC(=S)NC1=O` (stereo not drawn) [THIOPENTAL] displayed a CL renal of 0.08 mL/min/kg.

The molecule `OCCN1C[C@H](O)[C@@H](O)[C@H](O)[C@H]1CO` [MIGLITOL] returned a CL renal of 1.7 mL/min/kg.

Regarding `CCC1(c2ccccc2)C(=O)NC(=O)NC1=O` [PHENOBARBITAL], the CL renal was 0.02 mL/min/kg.

As to `O=C(O)P(=O)(O)O` [FOSCARNET], the CL renal came out at 1.68 mL/min/kg.

Regarding `NC1CCN(c2c(F)cc3c(=O)c(C(=O)O)cn(C4CC4)c3c2Cl)C1` (stereo not drawn) [CLINAFLOXACIN], the CL renal amounted to 3.2 mL/min/kg.

On to `Cc1ccc(-c2nc3ccc(C)cn3c2CC(=O)N(C)C)cc1` [ZOLPIDEM], for which the CL renal was 0.04 mL/min/kg.

On to `c1ccc(C2(N3CCCCC3)CCCCC2)cc1` [PHENCYCLIDINE], for which the CL renal is 0.82 mL/min/kg.

With `CCCCCCCCCC(=O)N[C@@H](Cc1c[nH]c2ccccc12)C(=O)N[C@H](CC(N)=O)C(=O)N[C@@H](CC(=O)O)C(=O)N[C@@H]1C(=O)NCC(=O)N[C@@H](CCCN)C(=O)N[C@@H](CC(=O)O)C(=O)N[C@H](C)C(=O)N[C@@H](CC(=O)O)C(=O)NCC(=O)N[C@H](CO)C(=O)N[C@@H]([C@H](C)CC(=O)O)C(=O)N[C@@H](CC(=O)c2ccccc2N)C(=O)O[C@@H]1C`, the CL renal amounted to 0.09 mL/min/kg.

In turn, `OC(Cn1cncn1)(Cn1cncn1)c1ccc(F)cc1F` [FLUCONAZOLE] had a CL renal of 0.23 mL/min/kg.
